Measurements reported in patent publication US20230312564A1, “AROMATIC RING-LACTAM COMPOUND, PREPARATION METHOD THEREFOR AND USE THEREOF” (SHANGHAI RINGENE BIOPHARMA CO., LTD., priority 2020, published 2023).
pIC50: −log10 of the molar value. Where two headings read alike, the source gives them in different places.

Legend:
p-ERK in MiaPaca-2 = assay: p-ERK feedback upregulation in MiaPaca-2 tumor cells; format: cell-based; conditions: acting on MiaPaca-2
Colo-205 cells = assay: Colo-205 tumor cell proliferation, CCK-8, 72 hours; format: cell-based; conditions: for pIC50: Homo sapiens, COLO 205, 72 hours, CCK-8, read-out: Colo-205 IC50; for cell proliferation inhibitory activity (in words): Colo-205
ERK1/2 kinase = target: T1, ERK1/2 kinase; assay: ERK1/2 kinase (Carna) inhibitory activity, Caliper mobility shift; format: biochemical; conditions: for pIC50: read-out: ERK½ IC50
T1 construct: fused on or other part: Carna's ERK products carry a GST tag by vendor knowledge
Procedure, shortened: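 Compounds tested from 10 μM top concentration, 3-fold dilutions to 10 points, in duplicate, in 1× kinase buffer; Caliper mobility-shift readout.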

[1] = system: Colo-205 transplanted tumor; assay: Growth inhibition of nude mice Colo-205 transplanted tumor; format: in vivo; conditions: 50 mg/kg, qdx21, po
Protocol: The tumor tissue in the vigorous growth phase was cut into about 1.5 mm^3 and inoculated subcutaneously in the right axilla of nude mice under sterile conditions. The diameter of subcutaneous transplanted tumors in nude mice was measured with a vernier caliper, and the mice were randomly divided into groups when the average tumor volume reached about 130 mm^3. The embodiment compounds (injection water containing 1% Tween 80 were configured to a desired concentration for later use) were orally administered daily at a given dose for three consecutive weeks, and the solvent control group was administered with the same amount of solvent. During the whole test, the diameter of transplanted tumor was measured twice a week, and the mice were weighed at the same time. The calculation formula of tumor volume (TV) is expressed as TV=1/2×a×b^2, wherein a and b represent length and width, respectively. The relative tumor volume (RTV) was calculated according to the measurement results, and the calculation formula is RTV=Vt/V0, wherein V0 is the tumor volume measured when administered in separate cages (i.e., d0), and Vt is the tumor volume at the time of each measurement.

CYP1A2 = target: T2, CYP1A2 (Homo sapiens, UniProt P05177); assay: Direct inhibition test (DI test) in human liver microsomes, CYP1A2
T2 sequence (P05177 1-516): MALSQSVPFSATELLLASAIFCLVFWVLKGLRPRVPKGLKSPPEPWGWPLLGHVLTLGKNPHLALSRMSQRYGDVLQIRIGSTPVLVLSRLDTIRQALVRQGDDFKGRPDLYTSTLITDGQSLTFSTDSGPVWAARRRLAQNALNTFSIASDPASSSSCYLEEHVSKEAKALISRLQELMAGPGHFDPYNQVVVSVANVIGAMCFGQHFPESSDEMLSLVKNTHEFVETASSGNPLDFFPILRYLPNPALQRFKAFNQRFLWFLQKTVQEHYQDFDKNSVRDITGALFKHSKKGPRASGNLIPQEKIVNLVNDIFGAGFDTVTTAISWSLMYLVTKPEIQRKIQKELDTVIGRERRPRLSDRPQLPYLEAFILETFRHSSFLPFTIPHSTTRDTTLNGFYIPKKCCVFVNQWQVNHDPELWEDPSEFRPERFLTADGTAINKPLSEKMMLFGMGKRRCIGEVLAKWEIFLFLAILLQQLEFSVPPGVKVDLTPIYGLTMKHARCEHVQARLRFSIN
Protocol: (§1) (2) Direct inhibition test (DI test): A system containing 100 μL of human liver microsomes (final concentration of 0.2 mg/mL) was subjected to a direct inhibition incubation, and the system contained NADPH (final concentration of 1 mM), 10 μM compound, positive inhibitor cocktail (10 μM ketoconazole, 10 μM quinidine, 100 μM sulfaphenazole, 10 μM α-naphthoflavone, 1,000 μM tranylcypromine), negative control (BPS of 0.1% DMSO), and mixed probe substrates (10 μM midazolam, 100 μM testosterone, 10 μM dextromethorphan, […], 100 μM phenacetin, 100 μM mephenytoin). After 20 minutes of incubation, the reaction was stopped. The relative activity of the enzyme was calculated by measuring the relative production of metabolites.

CYP2C8 = CYP2C8 (Homo sapiens, UniProt P11712); assay: Direct inhibition test (DI test) in human liver microsomes, CYP2C8; format: in vitro ADME
[2] = Liver microsomal metabolic stability, human; format: in vitro ADME; conditions: liver microsomes, 0.5 mg/mL microsomes, 1 μM compound, NADPH, read-out: Liver microsomal stability T1/2
Protocol: (§2) The reaction was stopped with tinidazole-containing acetonitrile at 0 min, 5 min, 10 min and 30 min, respectively. After vortexing for 10 min and centrifuging at 15,000 rmp for 10 min, 50 μL of the supernatant was injected into a 96-well plate. The metabolic stability of the compound was calculated by determining the relative reduction of the drug, calculated as half-life T1/2.

CYP2C19 = target: T3, CYP2C19 (Homo sapiens, UniProt P33261); assay: Direct inhibition test (DI test) in human liver microsomes, CYP2C19; format: in vitro ADME
T3 construct: A system containing 100 μL of human liver microsomes; from tissue; host or cells: human liver microsomes
Protocol: as §1

[3] = In-vivo pharmacokinetic parameters in mice; design: species or system Balb-c mice
Procedure, shortened: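 Male SD rats or Balb-c mice were dosed intravenously at 1 mg/kg or orally at 5 mg/kg. Jugular-vein plasma was sampled up to 24 h and analysed by LC-MS/MS. Non-compartmental analysis gave AUC, MRT, Cmax, Tmax, T1/2, Vd and oral bioavailability (F).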

[4] = Liver microsomal metabolic stability, rat; format: in vitro ADME; conditions: liver microsomes, 0.5 mg/mL microsomes, 1 μM compound, NADPH, read-out: Liver microsomal stability T1/2
Protocol: as §2

CYP2D6 = target: T4, CYP2D6 (Homo sapiens, UniProt P10635); assay: Direct inhibition test (DI test) in human liver microsomes, CYP2D6; format: in vitro ADME
T4 construct: A system containing 100 μL of human liver microsomes; from tissue; host or cells: human liver microsomes
Protocol: as §1

[5] = Liver microsomal stability, comparisons in words across species; format: in vitro ADME; conditions: mouse, rat and human; compared with comparative compound 5
Protocol: as §2

[6] = Liver microsomal metabolic stability, dog; format: in vitro ADME; conditions: liver microsomes, 0.5 mg/mL microsomes, 1 μM compound, NADPH, read-out: Liver microsomal stability T1/2
Protocol: as §2

[7] = Liver microsomal metabolic stability, mouse; format: in vitro ADME; conditions: liver microsomes, 0.5 mg/mL microsomes, 1 μM compound, NADPH, read-out: Liver microsomal stability T1/2
Protocol: as §2

CYP3A4 = target: T5, CYP3A4 (Homo sapiens, UniProt P08684); assay: Direct inhibition test (DI test) in human liver microsomes, CYP3A4; format: in vitro ADME
T5 construct: A system containing 100 μL of human liver microsomes; from tissue; host or cells: human liver microsomes
Protocol: as §1

[8] = male, Balb-c, mouse, plasma, IV, 1 mg/kg
[9] = male, Balb-c, mouse, plasma, PO, 5 mg/kg

CYP2C8, sequence (P11712 whole entry): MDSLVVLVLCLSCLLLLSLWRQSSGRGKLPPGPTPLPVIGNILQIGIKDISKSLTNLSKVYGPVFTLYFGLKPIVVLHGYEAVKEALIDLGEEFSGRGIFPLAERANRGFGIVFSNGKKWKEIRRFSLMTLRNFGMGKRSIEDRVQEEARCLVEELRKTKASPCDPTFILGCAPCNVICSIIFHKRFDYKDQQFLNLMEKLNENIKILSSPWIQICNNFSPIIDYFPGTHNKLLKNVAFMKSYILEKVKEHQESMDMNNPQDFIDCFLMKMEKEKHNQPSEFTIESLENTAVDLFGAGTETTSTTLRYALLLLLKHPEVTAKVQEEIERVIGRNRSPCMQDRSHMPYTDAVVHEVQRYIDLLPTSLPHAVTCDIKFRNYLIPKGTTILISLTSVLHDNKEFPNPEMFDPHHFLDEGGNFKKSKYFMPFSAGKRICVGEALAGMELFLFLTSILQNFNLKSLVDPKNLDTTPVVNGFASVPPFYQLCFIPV
T4 sequence (P10635 whole entry): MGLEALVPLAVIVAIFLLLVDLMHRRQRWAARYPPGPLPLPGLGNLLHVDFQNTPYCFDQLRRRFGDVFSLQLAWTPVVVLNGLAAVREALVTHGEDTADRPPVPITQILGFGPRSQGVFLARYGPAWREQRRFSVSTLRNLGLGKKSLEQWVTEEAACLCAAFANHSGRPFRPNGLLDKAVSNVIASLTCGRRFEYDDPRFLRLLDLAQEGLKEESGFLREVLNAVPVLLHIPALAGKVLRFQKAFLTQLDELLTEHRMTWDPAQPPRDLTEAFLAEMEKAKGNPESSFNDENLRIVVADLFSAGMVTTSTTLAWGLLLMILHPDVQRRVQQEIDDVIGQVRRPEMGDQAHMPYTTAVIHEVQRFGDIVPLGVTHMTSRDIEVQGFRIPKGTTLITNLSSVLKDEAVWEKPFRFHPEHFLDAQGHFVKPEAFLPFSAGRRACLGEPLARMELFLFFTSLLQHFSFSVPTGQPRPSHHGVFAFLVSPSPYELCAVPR
T5 sequence (P08684 whole entry): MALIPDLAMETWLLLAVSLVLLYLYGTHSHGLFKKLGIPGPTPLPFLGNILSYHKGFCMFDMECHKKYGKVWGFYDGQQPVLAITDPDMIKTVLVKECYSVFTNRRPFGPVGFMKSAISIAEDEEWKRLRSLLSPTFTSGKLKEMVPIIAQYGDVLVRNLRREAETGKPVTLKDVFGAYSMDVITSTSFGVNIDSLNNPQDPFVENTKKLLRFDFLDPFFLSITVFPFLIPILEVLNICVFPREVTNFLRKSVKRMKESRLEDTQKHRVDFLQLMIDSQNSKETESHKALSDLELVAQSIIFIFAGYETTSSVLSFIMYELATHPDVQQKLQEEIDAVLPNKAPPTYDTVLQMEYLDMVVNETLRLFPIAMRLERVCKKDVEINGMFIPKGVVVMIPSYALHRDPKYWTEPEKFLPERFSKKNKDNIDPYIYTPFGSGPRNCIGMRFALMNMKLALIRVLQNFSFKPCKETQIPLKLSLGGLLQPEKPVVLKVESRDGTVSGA
T3 sequence (P33261 whole entry): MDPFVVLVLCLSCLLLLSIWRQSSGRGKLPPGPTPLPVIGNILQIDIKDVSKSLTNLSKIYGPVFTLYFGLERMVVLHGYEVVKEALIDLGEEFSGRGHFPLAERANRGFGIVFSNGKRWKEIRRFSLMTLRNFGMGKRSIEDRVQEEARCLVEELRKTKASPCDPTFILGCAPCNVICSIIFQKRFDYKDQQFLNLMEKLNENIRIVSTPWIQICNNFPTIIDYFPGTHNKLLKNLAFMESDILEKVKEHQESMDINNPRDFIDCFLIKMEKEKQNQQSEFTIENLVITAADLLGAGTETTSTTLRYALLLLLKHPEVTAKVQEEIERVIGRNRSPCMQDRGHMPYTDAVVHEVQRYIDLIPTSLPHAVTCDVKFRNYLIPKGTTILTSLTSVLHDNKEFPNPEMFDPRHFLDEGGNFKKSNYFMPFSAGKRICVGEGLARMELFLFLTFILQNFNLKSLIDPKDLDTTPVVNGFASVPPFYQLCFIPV

| Structure (SMILES) | pIC50 (Colo-205 cells; numeric values) | pIC50 (CYP1A2) | IC50 at 20 min (CYP2C8) [µM] | pIC50 (ERK1/2 kinase; numeric values) | pIC50 (CYP2C19) | pIC50 (CYP2D6) | pIC50 (CYP3A4) | cell proliferation inhibitory activity (in words) (Colo-205 cells) | also measured |
| --- | --- | --- | --- | --- | --- | --- | --- | --- | --- |
| CC(C)Nc1cc(-c2c[nH]c(C(=O)N[C@H](CO)c3cccc(Cl)c3)c2)c(Cl)cn1 [BVD523, reference compound] | 6.55 |  |  |  |  |  |  |  | p-ERK upregulation (in words) (p-ERK in MiaPaca-2): will cause p-ERK feedback upregulation; pIC50 (ERK1/2 kinase; class symbols): > 8.00; T/C [1]: 48.5%; Initial weight (D0) ([1]; D0): 19.8 g; Terminal weight (D21) ([1]; D21): 19.0 g; Initial tumor volume ([1]; initial): 97 ± 14 mm^3; Terminal tumor volume ([1]; terminal): 471 ± 198 mm^3 |
| COc1cc(F)cc([C@@H](CO)NC(=O)[C@@H](C)N2Cc3ccc(-c4nc(NC5CCOCC5)ncc4Cl)nc3C2=O)c1 [Embodiment 18] | 7.48 | < 5.00 | > 10 | 9.10 | < 5.00 | < 5.00 | < 5.00 | strong cell proliferation inhibitory activity | half-life at 1 μM [2]: 12 min; enzyme inhibitory activity (in words) (ERK1/2 kinase): extremely strong enzyme inhibitory activity; F ([3]; PO 5 mg/kg vs IV 1 mg/kg): 25%; AUC(0-inf) [3, 8]: 202 nM·h; AUC(0-t) [3, 8]: 198 nM·h; MRT inf [3, 8]: 30 min; clearance [3, 8]: 8.64 L/h/kg; half-life [3, 8]: 72 min; Vd ([3]; male, Balb-c, mouse, plasma, IV, 1 mg/kg, read-out: Vss): 3.9 L/kg; AUC(0-inf) [3, 9]: 257 nM·h; AUC(0-t) [3, 9]: 253 nM·h; Cmax [3, 9]: 0.289 µM; Tmax [3, 9]: 24 min; half-life [3, 9]: 42 min; half-life at 1 μM [4]: 16 min; stability in liver microsomes (in words) [5]: significantly improved; half-life at 1 μM [6]: 32 min; half-life at 1 μM [7]: 32 min |
| C[C@H](C(=O)N[C@H](CO)c1cccc(F)c1)N1Cc2ccc(-c3nc(NC4CCOCC4)ncc3F)c(F)c2C1=O [Embodiment 46] | 7.79 | < 5.00 | > 10 | > 9.00 | < 5.00 | < 5.00 | < 5.00 |  |  |
| C[C@H](C(=O)N[C@H](CO)c1ccc(F)c(Cl)c1)N1Cc2ccc(-c3nc(NC4CCOCC4)ncc3F)c(F)c2C1=O [Embodiment 48] | 7.72 | < 5.00 | > 10 | > 9.00 | < 5.00 | < 5.00 | < 5.00 | strong cell proliferation inhibitory activity |  |
| [2H]C([2H])([2H])Oc1cc(F)cc([C@@H](CO)NC(=O)[C@@H](C)N2Cc3ccc(-c4nc(NC5CCOCC5)ncc4F)c(F)c3C2=O)c1 [Embodiment 49] | 7.76 | < 5.00 | > 10 | > 9.00 | < 5.00 | < 5.00 | < 5.00 | strong cell proliferation inhibitory activity | enzyme inhibitory activity (in words) (ERK1/2 kinase): extremely strong enzyme inhibitory activity |

Further lines, with some results ahead:

| pIC50 (Colo-205 cells; numeric values) | pIC50 (CYP1A2) | IC50 at 20 min (CYP2C8) [µM] | pIC50 (ERK1/2 kinase; numeric values) | pIC50 (CYP2C19) | pIC50 (CYP2D6) | pIC50 (CYP3A4) | Structure (SMILES) | cell proliferation inhibitory activity (in words) (Colo-205 cells) | also measured |
| --- | --- | --- | --- | --- | --- | --- | --- | --- | --- |
|  | < 5.00 | > 10 | > 9.00 | < 5.00 | < 5.00 | < 5.00 | COc1cc(F)cc([C@@H](CO)NC(=O)[C@@H](C)N2Cc3ccc(-c4nc(NC5CCOC5)ncc4F)c(F)c3C2=O)c1 (some centres unmarked) [Embodiment 42] | strong cell proliferation inhibitory activity | pIC50 (Colo-205 cells; class symbols): > 7.00 |
| 7.74 | < 5.00 | > 10 |  | < 5.00 | < 5.00 | < 5.00 | COc1cc(F)cc([C@@H](CO)NC(=O)[C@@H](C)N2Cc3ccc(-c4nc(NC5CCC(F)(F)CC5)ncc4F)c(F)c3C2=O)c1 [Embodiment 44] | strong cell proliferation inhibitory activity | pIC50 (ERK1/2 kinase; class symbols): > 8.00 |
